Measured values as given in ChEMBL document CHEMBL1132079, “Combined NK1 and NK2 tachykinin receptor antagonists: synthesis and structure-activity relationships of novel oxazolidine analogues” (Bioorg Med Chem Lett, 1999).
Activity calls are given as the source filed them. No cut-off for these calls is given here.

Experiments:
[1] = target: Substance-P receptor (Cavia porcellus) (UniProt P30547); experiment: Inhibitory activity against Neurokinin 1 (NK1) receptor from guinea pig lung at a concentration of 1 ug/mL
Chain of Substance-P receptor (Cavia porcellus) (P30547 whole entry): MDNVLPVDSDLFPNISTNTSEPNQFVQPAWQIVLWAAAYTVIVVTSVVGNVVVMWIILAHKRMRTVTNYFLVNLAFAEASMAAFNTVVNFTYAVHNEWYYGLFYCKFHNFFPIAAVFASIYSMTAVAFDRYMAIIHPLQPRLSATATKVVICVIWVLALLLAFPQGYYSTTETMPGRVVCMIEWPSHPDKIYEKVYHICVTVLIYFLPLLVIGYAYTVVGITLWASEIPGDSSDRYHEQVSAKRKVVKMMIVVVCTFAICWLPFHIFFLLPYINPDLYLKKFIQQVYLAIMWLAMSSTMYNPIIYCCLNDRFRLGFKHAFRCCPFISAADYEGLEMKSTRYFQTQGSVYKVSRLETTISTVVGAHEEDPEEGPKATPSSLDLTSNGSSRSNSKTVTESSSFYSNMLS

[2] = target: T1, Substance-K receptor (Cavia porcellus) (UniProt Q64077); experiment: Antagonist activity against Neurokinin 2 (NK2) receptor from guinea pig ileum at a concentration of 1 ug/mL; assay type: functional, tissue-based
T1 sequence (whole entry): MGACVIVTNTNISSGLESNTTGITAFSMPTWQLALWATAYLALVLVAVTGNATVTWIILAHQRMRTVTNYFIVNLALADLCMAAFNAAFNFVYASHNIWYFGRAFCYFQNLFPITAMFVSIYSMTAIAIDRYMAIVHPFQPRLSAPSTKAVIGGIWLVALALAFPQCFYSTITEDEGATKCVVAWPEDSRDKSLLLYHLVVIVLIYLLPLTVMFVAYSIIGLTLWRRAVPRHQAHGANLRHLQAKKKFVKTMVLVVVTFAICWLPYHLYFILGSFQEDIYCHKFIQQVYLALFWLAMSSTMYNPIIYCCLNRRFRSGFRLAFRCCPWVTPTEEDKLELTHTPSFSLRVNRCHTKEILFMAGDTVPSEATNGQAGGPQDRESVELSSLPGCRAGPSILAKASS

[3] = target: Substance-P receptor (Cavia porcellus, UniProt P30547); experiment: Inhibitory activity against Neurokinin 1 (NK1) receptor from guinea pig lung
Chain of Substance-P receptor (P30547 whole entry): as the sequence (P30547 whole entry) above

[4] = target: T2, Substance-K receptor (Cavia porcellus, UniProt Q64077); experiment: Inhibitory activity against Neurokinin 2 (NK2) receptor from guinea pig ileum; assay type: tissue-based
T2 sequence (Q64077 whole entry): T1 sequence (whole entry)

| Compound | inhibition [1] | inhibition [2] | IC50 [3] [nM] | IC50 [4] [nM] |
| --- | --- | --- | --- | --- |
| NC(=O)C1(c2ccccc2)CCN(CC[C@@]2(c3ccc(Cl)c(Cl)c3)CN(C(=O)c3cc4ccccc4[nH]3)CO2)CC1 | 96% | 26% |  |  |
| COc1cc(C(=O)N2CO[C@](CCN3CCC(C(=O)NCc4ccccc4)CC3)(c3ccc(Cl)c(Cl)c3)C2)cc(OC)c1OC |  | 64% | 92.9 |  |
| N#Cc1ccc(C(=O)N2CO[C@](CCN3CCC(C(N)=O)(c4ccccc4)CC3)(c3ccc(Cl)c(Cl)c3)C2)cc1 | 29% | 79% |  |  |
| NC(=O)C1(c2ccccc2)CCN(CC[C@@]2(c3ccc(Cl)c(Cl)c3)CN(C(=O)c3ccc(Cl)cc3)CO2)CC1 | 50% | 88% |  |  |
| COc1cc(C(=O)N2CO[C@](CCN3CCC4(CC3)C(=O)NCN4c3ccccc3)(c3ccc(Cl)c(Cl)c3)C2)cc(OC)c1OC |  |  | 7.47 |  |
| COc1cc(C(=O)N2CO[C@](CCN3CCC(C(N)=O)(c4ccccn4)CC3)(c3ccc(Cl)c(Cl)c3)C2)cc(OC)c1OC | 95% | 83% |  |  |
| COc1cc(C(=O)N2CO[C@](CCN3CCC(n4c(O)nc5ccccc54)CC3)(c3ccc(Cl)c(Cl)c3)C2)cc(OC)c1OC | 100% | 85% |  |  |
| COc1cc(C(=O)N2CO[C@](CCN3CCC(C(=O)c4ccc(Cl)cc4)CC3)(c3ccc(Cl)c(Cl)c3)C2)cc(OC)c1OC | 97% | 54% |  |  |
| COc1cc(C(=O)N2CO[C@](CCN3CCC4(CC3)c3ccccc3C[S+]4[O-])(c3ccc(F)cc3)C2)cc(OC)c1OC (some centres undefined) |  |  | 24.6 | 34.5 |
| COc1cc(C(=O)N2CO[C@](CCN3CCC4(CC3)CN(Cc3ccccc3)C(=O)O4)(c3ccc(Cl)c(Cl)c3)C2)cc(OC)c1OC | 86% | 44% |  |  |
| COc1ccc(C(=O)N2CO[C@](CCN3CCC(C(N)=O)(c4ccccc4)CC3)(c3ccc(Cl)c(Cl)c3)C2)cc1 |  |  | 112 | 292 |
| NC(=O)C1(c2ccccc2)CCN(CC[C@@]2(c3ccc(Cl)c(Cl)c3)CN(C(=O)c3ccc4ccccc4n3)CO2)CC1 | inactive | 71% |  |  |
| COc1cc(C(=O)N2CO[C@](CCN3CCC4(CC3)C[S+]([O-])c3ccccc34)(c3ccc(Cl)c(Cl)c3)C2)cc(OC)c1OC (some centres undefined) |  |  | 8.94 | 11.1 |
| COc1cc(C(=O)N2CO[C@](CCN3CCN(c4ncccn4)CC3)(c3ccc(Cl)c(Cl)c3)C2)cc(OC)c1OC | 100% | 48% |  |  |
| NC(=O)C1(c2ccccc2)CCN(CC[C@@]2(c3ccc(Cl)c(Cl)c3)CN(C(=O)c3ccccn3)CO2)CC1 | 39% | 73% |  |  |
| COc1cc(C(=O)N2CO[C@](CCN3CCC(O)(c4ccncc4)CC3)(c3ccc(Cl)c(Cl)c3)C2)cc(OC)c1OC |  |  | 3.08 | 144 |
| COc1cc(C(=O)N2CO[C@](CCN3CCC4(CC3)c3ccccc3C[S+]4[O-])(c3ccc(Cl)cc3)C2)cc(OC)c1OC (some centres undefined) |  |  | 19.2 | 11 |
| COc1cc(C(=O)N2CO[C@](CCN3CCN(c4ccc(C(C)=O)cc4)CC3)(c3ccc(Cl)c(Cl)c3)C2)cc(OC)c1OC |  |  | 28 | 115 |
| COC(=O)c1ccc(C(=O)N2CO[C@](CCN3CCC(C(N)=O)(c4ccccc4)CC3)(c3ccc(Cl)c(Cl)c3)C2)cc1 | 36% | 85% |  |  |
| COc1cc(C(=O)N2CO[C@](CCN3CCC4(CC3)CN(c3ccccc3)C(=O)O4)(c3ccc(Cl)c(Cl)c3)C2)cc(OC)c1OC | 86% | 12% |  |  |
| NC(=O)C1(c2ccccc2)CCN(CC[C@@]2(c3ccc(Cl)c(Cl)c3)CN(C(=O)c3cnc4ccccc4n3)CO2)CC1 | 38% | 71% |  |  |
| COc1cc(C(=O)N2CO[C@](CCN3CCC4(CC3)c3ccccc3CS4(=O)=O)(c3ccc(Cl)c(Cl)c3)C2)cc(OC)c1OC |  |  | 34 | 28.1 |
| COc1cc(CC(=O)N2CO[C@](CCN3CCC(C(N)=O)(c4ccccc4)CC3)(c3ccc(Cl)c(Cl)c3)C2)cc(OC)c1OC | 87% | inactive |  |  |
| COc1cc(C(=O)N2CO[C@](CCN3CCC(C(=O)N4CCOCC4)(c4ccccc4)CC3)(c3ccc(Cl)c(Cl)c3)C2)cc(OC)c1OC |  |  | 44.9 | 73 |
| COc1cc(C(=O)N2CO[C@](CCN3CCC(C(=O)N(C)C)(c4ccccc4)CC3)(c3ccc(F)cc3)C2)cc(OC)c1OC |  |  | 27.4 | 15 |
| COc1cc(C(=O)N2CO[C@](CCN3CCC(C(C)=O)(c4ccccc4)CC3)(c3ccc(Cl)c(Cl)c3)C2)cc(OC)c1OC | 83% | 57% |  |  |
| NC(=O)C1(c2ccccc2)CCN(CC[C@@]2(c3ccc(Cl)c(Cl)c3)CN(C(=O)c3ccccc3)CO2)CC1 | 75% | 87% |  |  |
| Cc1cc(C)cc(C(=O)N2CO[C@](CCN3CCC(C(N)=O)(c4ccccc4)CC3)(c3ccc(Cl)c(Cl)c3)C2)c1 | 100% | 90% |  |  |

| Compound | inhibition [1] | inhibition [2] | IC50 [3] [nM] | IC50 [4] [nM] |
| --- | --- | --- | --- | --- |
| NC(=O)C1(c2ccccc2)CCN(CC[C@@]2(c3ccc(Cl)c(Cl)c3)CN(C(=O)c3ccncc3)CO2)CC1 | 65% | 57% |  |  |
| COc1cc(C(=O)N2CO[C@](CCN3CCC4(CC3)C(=O)N(C)c3ccccc34)(c3ccc(Cl)c(Cl)c3)C2)cc(OC)c1OC |  |  | 14.1 | 51.9 |
| COc1cc(C(=O)N2CO[C@](CCN3CCC(C(=O)N(C)C)(c4ccccc4)CC3)(c3ccc(F)c(F)c3)C2)cc(OC)c1OC |  |  | 42.3 | 20.4 |
| COc1ccc(C(=O)N2CO[C@](CCN3CCC(C(N)=O)(c4ccccc4)CC3)(c3ccc(Cl)c(Cl)c3)C2)cc1OC | 93% | 88% |  |  |
| NC(=O)C1(c2ccccc2)CCN(CC[C@@]2(c3ccc(Cl)c(Cl)c3)CN(C(=O)c3cccnc3)CO2)CC1 | 38% | 48% |  |  |
| NC(=O)C1(c2ccccc2)CCN(CC[C@@]2(c3ccc(Cl)c(Cl)c3)CN(C(=O)c3cc4ccccc4o3)CO2)CC1 | inactive | 59% |  |  |
| NC(=O)C1(c2ccccc2)CCN(CC[C@@]2(c3ccc(Cl)c(Cl)c3)CN(C(=O)c3cnccn3)CO2)CC1 | 23% | 47% |  |  |
| COc1cc(C(=O)N2CO[C@](CCN3CCC4(CC3)SCc3ccccc34)(c3ccc(Cl)c(Cl)c3)C2)cc(OC)c1OC | 100% | 89% |  |  |
| COc1ccc(C(=O)N2CO[C@](CCN3CCC(C(N)=O)(c4ccccc4)CC3)(c3ccc(Cl)c(Cl)c3)C2)c(OC)c1 | 78% | 85% |  |  |
| COc1cc(C(=O)N2CO[C@](CCN3CCC4(CC3)OCc3ccccc34)(c3ccc(Cl)c(Cl)c3)C2)cc(OC)c1OC | 98% | 91% |  |  |
| COc1cc(C(=O)N2CO[C@](CCN3CCC(NC(=O)c4ccccc4)CC3)(c3ccc(Cl)c(Cl)c3)C2)cc(OC)c1OC | 89% | 44% |  |  |
| NC(=O)C1(c2ccccc2)CCN(CC[C@@]2(c3ccc(Cl)c(Cl)c3)CN(C(=O)c3cccs3)CO2)CC1 | 33% | 83% |  |  |
| COc1cc(C(=O)N2CO[C@](CCN3CCC(C(=O)Nc4ccccc4)CC3)(c3ccc(Cl)c(Cl)c3)C2)cc(OC)c1OC | 44% | 72% |  |  |
| COc1cccc(OC)c1C(=O)N1CO[C@](CCN2CCC(C(N)=O)(c3ccccc3)CC2)(c2ccc(Cl)c(Cl)c2)C1 | 74% | 83% |  |  |
| COc1cccc(C(=O)N2CO[C@](CCN3CCC(C(N)=O)(c4ccccc4)CC3)(c3ccc(Cl)c(Cl)c3)C2)c1 | 100% | 82% |  |  |
| COc1ccc(S(=O)(=O)N2CO[C@](CCN3CCC(C(N)=O)(c4ccccc4)CC3)(c3ccc(Cl)c(Cl)c3)C2)cc1OC | 71% | 10% |  |  |
| COc1cc(C(=O)N2CO[C@](CCN3CCC(O)(c4ccccn4)CC3)(c3ccc(Cl)c(Cl)c3)C2)cc(OC)c1OC | 100% | 76% |  |  |
| COc1cc(OC)cc(C(=O)N2CO[C@](CCN3CCC(C(N)=O)(c4ccccc4)CC3)(c3ccc(Cl)c(Cl)c3)C2)c1 | 93% | 97% |  |  |
| COc1cc(C(=O)N2CO[C@](CCN3CCC4(CC3)CN(S(C)(=O)=O)c3ccccc34)(c3ccc(Cl)c(Cl)c3)C2)cc(OC)c1OC | 98% | 91% |  |  |
| COc1cc(C(=O)N2CO[C@](CCN3CCN(c4ccccn4)CC3)(c3ccc(Cl)c(Cl)c3)C2)cc(OC)c1OC | 100% | 42% |  |  |
| COc1cc(C(=O)N2CO[C@](CCN3CCC(NC(C)=O)(c4ccccc4)CC3)(c3ccc(Cl)c(Cl)c3)C2)cc(OC)c1OC | 100% | 62% |  |  |
| COc1ccccc1C(=O)N1CO[C@](CCN2CCC(C(N)=O)(c3ccccc3)CC2)(c2ccc(Cl)c(Cl)c2)C1 | 100% | 87% |  |  |
| CC(=O)Nc1ccc(C(=O)N2CO[C@](CCN3CCC(C(N)=O)(c4ccccc4)CC3)(c3ccc(Cl)c(Cl)c3)C2)cc1 | 9% | 85% |  |  |
| CC(C)Oc1cccc(CC(=O)N2CO[C@](CCN3CCC(C(N)=O)(c4ccccc4)CC3)(c3ccc(Cl)c(Cl)c3)C2)c1 | 59% | 18% |  |  |
| COc1cc(C(=O)N2CO[C@](CCN3CCC(O)(c4cccnc4)CC3)(c3ccc(Cl)c(Cl)c3)C2)cc(OC)c1OC | 100% | 100% |  |  |
| Cc1ccc(C(=O)N2CO[C@](CCN3CCC(C(N)=O)(c4ccccc4)CC3)(c3ccc(Cl)c(Cl)c3)C2)cc1 | 56% | 88% |  |  |
| COc1cc(C(=O)N2CO[C@](CCN3CCC(O)(c4ccccc4)CC3)(c3ccc(Cl)c(Cl)c3)C2)cc(OC)c1OC | 100% | 58% |  |  |
